Experimental data reported in US20090069565A1, “NEW INDOLE DERIVATIVES AS FACTOR XA INHIBITORS” (priority 2001, published 2009).
Where two headings read alike, the source gives them in different places.

Target: human factor Xa (Homo sapiens, UniProt P00742)
Assay: Factor Xa assay (chromogenic, substrate S-2765);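 also: purified enzyme preincubated with inhibitor for 10 min before substrate addition, final reaction volume 100 µl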
Format: biochemical
Conditions: read-out: Ki(FXa)
[1] = inhibition constant for factor Xa, purified enzyme 0.5 nM, substrate S-2765 140 μM, 25° C., pH 7.8, Ki=IC50/{1+(substrate concentration/Km)}

Sequence of human factor Xa (P00742 235-488 limits assumed): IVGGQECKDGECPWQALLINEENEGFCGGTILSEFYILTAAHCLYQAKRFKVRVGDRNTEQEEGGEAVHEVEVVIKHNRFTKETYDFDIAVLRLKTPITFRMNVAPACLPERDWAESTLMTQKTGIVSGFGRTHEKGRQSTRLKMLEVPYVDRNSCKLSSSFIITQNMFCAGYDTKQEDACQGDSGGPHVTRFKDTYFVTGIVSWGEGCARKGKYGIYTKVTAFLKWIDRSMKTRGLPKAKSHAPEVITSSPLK
Sequence of human factor Xa (P00742 41-179 partner limits assumed): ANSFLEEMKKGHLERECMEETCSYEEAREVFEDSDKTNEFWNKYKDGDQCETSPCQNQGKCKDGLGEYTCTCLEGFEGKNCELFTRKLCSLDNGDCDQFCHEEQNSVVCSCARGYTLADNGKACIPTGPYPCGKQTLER

CC(C)N1CCC(N(CC(=O)O)C(=O)c2cc3cc(Cl)cc(Cl)c3n2Cc2cc(-c3ccc(Cl)s3)on2)CC1 [Example 233, [{5,7-Dichloro-1-[5-(5-chloro-thiophen-2-yl)-isoxazol-3-ylmethyl]-1H-indole-2-carbonyl}-(1-isopropyl-piperidin-4-yl)-amino]-acetic acid]
Ki: 0.074 µM

CC(C)N1CCC(N(CC(=O)O)C(=O)c2cc3c(Cl)cccc3n2Cc2cc(-c3ccc(Cl)s3)on2)CC1 [Example 234, [{4-Chloro-1-[5-(5-chloro-thiophen-2-yl)-isoxazol-3-ylmethyl]-1H-indole-2-carbonyl}-(1-isopropyl-piperidin-4-yl)-amino]-acetic acid]
Ki: 0.056 µM

CC(C)OC(=O)c1ccc2c(c1)cc(C(=O)NC1CCN(C(C)C)CC1)n2Cc1cc(-c2ccc(Cl)s2)on1 [Example 235, 1-[5-(5-Chloro-thiophen-2-yl)-isoxazol-3-ylmethyl]-2-(1-isopropyl-piperidin-4-ylcarbamoyl)-1H-indole-5-carboxylic acid isopropyl ester]
Ki: 0.042 µM

CC(C)N1CCC(NC(=O)c2cc3cc(C(=O)O)ccc3n2Cc2cc(-c3ccc(Cl)s3)on2)CC1 [Example 236, 1-[5-(5-Chloro-thiophen-2-yl)-isoxazol-3-ylmethyl]-2-(1-isopropyl-piperidin-4-ylcarbamoyl)-1H-indole-5-carboxylic acid]
Ki: 0.01 µM

CC(C)N1CCC(NC(=O)c2cc3cc(CO)ccc3n2Cc2cc(-c3ccc(Cl)s3)on2)CC1 [Example 237, 1-[5-(5-Chloro-thiophen-2-yl)-isoxazol-3-ylmethyl]-5-hydroxymethyl-1H-indole-2-carboxylic acid (1-isopropyl-piperidin-4-yl)-amide]
Ki: 0.003 µM

CCOC(=O)c1ccc2c(c1)cc(C(=O)NC1CCN(C(C)C)CC1)n2Cc1cc(-c2ccc(Cl)s2)on1 [Example 238, 1-[5-(5-Chloro-thiophen-2-yl)-isoxazol-3-ylmethyl]-2-(1-isopropyl-piperidin-4-ylcarbamoyl)-1H-indole-5-carboxylic acid ethyl ester]
Ki: 0.011 µM

COC(=O)c1ccc2c(c1)cc(C(=O)NC1CCN(C(C)C)CC1)n2Cc1cc(-c2ccc(Cl)s2)on1 [Example 239, 1-[5-(5-Chloro-thiophen-2-yl)-isoxazol-3-ylmethyl]-2-(1-isopropyl-piperidin-4-ylcarbamoyl)-1H-indole-5-carboxylic acid methyl ester]
Ki: 0.005 µM

CC(C)N1CCC(NC(=O)c2cc3cc(C(=O)OCOC(=O)C(C)(C)C)ccc3n2Cc2cc(-c3ccc(Cl)s3)on2)CC1 [Example 240, 1-[5-(5-Chloro-thiophen-2-yl)-isoxazol-3-ylmethyl]-2-(1-isopropyl-piperidin-4-ylcarbamoyl)-1H-indole-5-carboxylic acid 2,2-dimethyl-propionyloxymethyl ester]
Ki: 0.035 µM

CC(C)N1CCC(NC(=O)c2cc3cc(C(=O)O)ccc3n2Cc2nnc(-c3ccc(Cl)s3)s2)CC1 [Example 242, 1-[5-(5-Chloro-thiophen-2-yl)-[1,3,4]thiadiazol-2-ylmethyl]-2-(1-isopropyl-piperidin-4-ylcarbamoyl)-1H-indole-5-carboxylic acid]
Ki: 0.004 µM

CC(C)OC(=O)c1ccc2c(c1)cc(C(=O)NC1CCN(C(C)C)CC1)n2CC(=O)Nc1ccc(Cl)cc1 [Example 243, 1-[(4-Chloro-phenylcarbamoyl)-methyl]-2-(1-isopropyl-piperidin-4-ylcarbamoyl)-1H-indole-5-carboxylic acid isopropyl ester]
Ki: 0.01 µM

CC(C)N1CCC(NC(=O)c2cc3cc(C(=O)O)ccc3n2CC(=O)Nc2ccc(Cl)cc2)CC1 [Example 244, 1-[(4-Chloro-phenylcarbamoyl)-methyl]-2-(1-isopropyl-piperidin-4-ylcarbamoyl)-1H-indole-5-carboxylic acid]
Ki: 0.004 µM

CC(C)N1CCC(NC(=O)c2cc3c(C(=O)O)cccc3n2Cc2cc(-c3ccc(Cl)s3)on2)CC1 [Example 246, 1-[5-(5-Chloro-thiophen-2-yl)-isoxazol-3-ylmethyl]-2-(1-isopropyl-piperidin-4-ylcarbamoyl)-1H-indole-4-carboxylic acid]
Ki: 0.004 µM

CC(C)N1CCC(NC(=O)c2cc3cc(C(N)=O)ccc3n2Cc2cc(-c3ccc(Cl)s3)on2)CC1 [Example 247, 1-[5-(5-Chloro-thiophen-2-yl)-isoxazol-3-ylmethyl]-1H-indole-2,5-dicarboxylic acid 5-amide 2-[(1-isopropyl-piperidin-4-yl)-amide]]
Ki: 0.024 µM

CC(C)N1CCC(NC(=O)c2cc3ccccc3n2CC(=O)Nc2ccc(Cl)cc2)CC1 [Example 248, 1-[(4-chloro-phenylcarbamoyl)-methyl]-1H-indole-2-carboxylic acid (1-isopropyl-piperidin-4-yl)-amide]
Ki [1]: 0.003 µM

CC(C)N1CCC(NC(=O)c2cc3ccccc3n2CC(=O)Nc2ccc(Cl)s2)CC1 [Example 249, 1-[(5-chloro-thiophen-2-ylcarbamoyl)-methyl]-1H-indole-2-carboxylic acid (1-isopropyl-piperidin-4-yl)-amide]
Ki [1]: 0.015 µM

CC(C)N1CCC(NC(=O)c2cc3ccccc3n2CC(=O)Nc2ccc(Cl)cc2F)CC1 [Example 250, 1-[(4-chloro-2-fluoro-phenylcarbamoyl)-methyl]-1H-indole-2-carboxylic acid (1-isopropyl-piperidin-4-yl)-amide]
Ki: 0.031 µM

O=C(Cn1c(C(=O)NCC2CCN(c3ccncc3)CC2)cc2ccccc21)Nc1ccc(Cl)cc1 [Example 252, 1-[(4-chloro-phenylcarbamoyl)-methyl]-1H-indole-2-carboxylic acid (3,4,5,6-tetrahydro-2H-[1,4′]bipyridinyl-4-ylmethyl)-amide]
Ki: 0.23 µM

O=C(Cn1c(C(=O)NC2CCN(c3ccncc3)CC2)cc2ccccc21)Nc1ccc(Cl)cc1 [Example 253, 1-[(4-chloro-phenylcarbamoyl)-methyl]-1H-indole-2-carboxylic acid (3,4,5,6-tetrahydro-2H-[1,4′]bipyridinyl-4-yl)-amide]
Ki: 0.34 µM

O=C(Cn1c(C(=O)N2CCC(Nc3ccncc3)CC2)cc2ccccc21)Nc1ccc(Cl)cc1 [Example 254, N-(4-chloro-phenyl)-2-{2-[4-(pyridin-4-ylamino)-piperidine-1-carbonyl]-indol-1-yl}-acetamide]
Ki: 0.223 µM

O=C(Cn1c(C(=O)NC2CCN(C3CC3)CC2)cc2ccccc21)Nc1ccc(Cl)cc1 [Example 255, 1-[(4-chloro-phenylcarbamoyl)-methyl]-1H-indole-2-carboxylic acid (1-cyclopropyl-piperidin-4-yl)-amide]
Ki: 0.106 µM

O=C(Cn1c(C(=O)N2CCC(N3CCCC3)CC2)cc2ccccc21)Nc1ccc(Cl)cc1 [Example 256, N-(4-chloro-phenyl)-2-[2-(4-pyrrolidin-1-yl-piperidine-1-carbonyl)-indol-1-yl]-acetamide]
Ki: 0.754 µM

CC(C)N1CCC(NC(=O)c2cc3cc([N+](=O)[O-])ccc3n2CC(=O)Nc2ccc(Cl)cc2)CC1 [Example 257, 1-[(4-chloro-phenylcarbamoyl)-methyl]-5-nitro-1H-indole-2-carboxylic acid (1-isopropyl-piperidin-4-yl)-amide]
Ki: 0.006 µM

CC(C)N1CCC(NC(=O)c2cc3c(Cl)c(N)ccc3n2Cc2cc(-c3ccc(Cl)s3)on2)CC1 [Example 258, 5-amino-4-chloro-1-[5-(5-chloro-thiophen-2-yl)-isoxazol-3-ylmethyl]-1H-indole-2-carboxylic acid (1-isopropyl-piperidin-4-yl)-amide]
Ki: 0.011 µM

N#CCN1CCC(NC(=O)c2cc3ccccc3n2Cc2cc(-c3ccc(Cl)s3)on2)CC1 [Example 259, 1-[5-(5-chloro-thiophen-2-yl)-isoxazol-3-ylmethyl]-1H-indole-2-carboxylic acid (1-cyanomethyl-piperidin-4-yl)-amide]
Ki: 0.772 µM

O=C(NC1CCN(CCO)CC1)c1cc2ccccc2n1Cc1cc(-c2ccc(Cl)s2)on1 [Example 260, 1-[5-(5-chloro-thiophen-2-yl)-isoxazol-3-ylmethyl]-1H-indole-2-carboxylic acid [1-(2-hydroxy-ethyl)-piperidin-4-yl]-amide]
Ki [1]: 0.131 µM

COCCN1CCC(NC(=O)c2cc3ccccc3n2Cc2cc(-c3ccc(Cl)s3)on2)CC1 [Example 261, 1-[5-(5-chloro-thiophen-2-yl)-isoxazol-3-ylmethyl]-1H-indole-2-carboxylic acid [1-(2-methoxy-ethyl)-piperidin-4-yl]-amide]
Ki: 0.139 µM

NC(=O)CN1CCC(NC(=O)c2cc3ccccc3n2Cc2cc(-c3ccc(Cl)s3)on2)CC1 [Example 262, 1-[5-(5-chloro-thiophen-2-yl)-isoxazol-3-ylmethyl]-1H-indole-2-carboxylic acid (1-carbamoylmethyl-piperidin-4-yl)-amide]
Ki: 0.25 µM

CNC(=O)CN1CCC(NC(=O)c2cc3ccccc3n2Cc2cc(-c3ccc(Cl)s3)on2)CC1 [Example 263, 1-[5-(5-chloro-thiophen-2-yl)-isoxazol-3-ylmethyl]-1H-indole-2-carboxylic acid (1-methylcarbamoylmethyl-piperidin-4-yl)-amide]
Ki: 0.58 µM

O=C(NC1CCN(Cc2ncc[nH]2)CC1)c1cc2ccccc2n1Cc1cc(-c2ccc(Cl)s2)on1 [Example 264, 1-[5-(5-chloro-thiophen-2-yl)-isoxazol-3-ylmethyl]-1H-indole-2-carboxylic acid [1-(1H-imidazol-2-ylmethyl)-piperidin-4-yl]-amide]
Ki: 0.559 µM

Cn1ccnc1CN1CCC(NC(=O)c2cc3ccccc3n2Cc2cc(-c3ccc(Cl)s3)on2)CC1 [Example 265, 1-[5-(5-chloro-thiophen-2-yl)-isoxazol-3-ylmethyl]-1H-indole-2-carboxylic acid [1-(1-methyl-1H-imidazol-2-ylmethyl)-piperidin-4-yl]-amide]
Ki: 0.404 µM

NCC(=O)N1CCC(NC(=O)c2cc3ccccc3n2Cc2cc(-c3ccc(Cl)s3)on2)CC1 [Example 267, 1-[5-(5-chloro-thiophen-2-yl)-isoxazol-3-ylmethyl]-1H-indole-2-carboxylic acid [1-(2-amino-acetyl)-piperidin-4-yl]-amide]
Ki: 0.891 µM
